In patent US7683162B2, “Process of preparing a crystalline azithromycin monohydrate” (Taro Pharmaceutical Industries Limited, priority 2004, dated 2010):
Where two headings read alike, the source gives them in different places.

Columns and labels:
[1] = cited from earlier work; for hygroscopicity (in words) / stability (in words): as described in the cited patent or publication
[2] = Storage of crystalline azithromycin monohydrate under accelerated conditions (40° C. and 75% relative humidity); type: physicochemical
From the text: (§1) The drying step in step (d) may be performed in stages. To achieve the desired water content, the isolated precipitate may first be dried for a period of time; and then dried for a subsequent period of time. Water content may be conveniently determined at different stages to ensure that a specified water content is achieved. Drying time and conditions may be easily optimized by one skilled in the art. Water content determination is in accordance to U.S. Pharmacopeia (USP) <921> Method I, which is incorporated herein by reference in its entirety.
(§2) (i) Chromatographic Conditions—The purity of a crystalline azithromycin monohydrate sample was determined using a high performance liquid chromatography (HPLC) instrument with a variable wavelength detector. The chromatographic conditions were: (i) Column—Xterra RP-18, endcapped 5 μm, 250×4.6 mm or equivalent; (ii) Flow Rate—1.0 mL/min; (iii) Column temperature—28° C.; (iv) Detection—UV at 215 nm; (v) Injection volume—20 μL; (vi) Run time—30 min; and, (vii) Mobile phase,Borate buffer pH=9.5: Acetonitrile (1:1, v/v). The mobile phase was prepared by adding NaOH (5N) to a solution of boric acid (about 1.2 grams) in water (1,000 mL; HPLC grade) to obtain a pH of 9.5.
(§3) (ii) Standard Solution for Purity Determination—A standard solution for purity determination was prepared by dissolving azithromycin monohydrate (about 50 mg, accurately weighed), in sufficient acetonitrile to fill a 25 mL volumetric flask. The azithromycin monohydrate used in the standard solution was prepared according to the procedure set forth in U.S. Pat. No. 6,268,489.
(§4) (iii) Preparation of Crystalline Azithromycin Monohydrate Sample Solution—A crystalline azithromycin monohydrate sample solution was prepared by transferring approximately 50 mg of the crystalline azithromycin monohydrate sample to be assayed into a 25 mL volumetric flask and diluting to volume with acetonitrile.
(§5) (iv) HPLC Protocol—The retention time of azithromycin was about 20 minutes. The retention time of azaerythromycin was about 13 minutes. Six replicates of the standard solution for determination of impurities, and 5 replicates of the standard solution for purity determination were injected into the HPLC system. The relative standard deviation of 5 replicate injections of the standard solution for purity determination was not more than 2.0%. The relative standard deviation of 6 replicate injections of the standard solution for determination of impurities was not more than 5.0%. If necessary, the mobile phase composition and/or flow rate were adjusted to meet the chromatographic parameters. The limit of detection for azaerythromycin was 0.04%. The limit of quantitation for azaerythromycin was 0.04%. The limit of detection for azithromycin was 0.04%. The limit of quantitation for azithromycin was 0.05%.
(§6) [formula] The terms are defined as follows: (i) Wst=Weight of standard in mg; (ii) Wsm=Weight of sample in mg; (iii) Ssm=Peak area of azithromycin obtained from sample solution; (iv) Sst=Average peak area of azithromycin obtained from standard solution for purity determination; (v) Pst=Purity of azithromycin standard in percent; and (vi) Msm=Water content of sample in percent. (B) Determination of Ethanol Content of Crystalline Azithromycin Monohydrate
(§7) The hygroscopicity of a crystalline azithromycin monohydrate was determined by monitoring its water content during storage. Specifically, the water content of the crystalline azithromycin monohydrate was determined at time zero and at various times thereafter during storage (e.g., 1, 2, and 3 months) under ambient conditions and accelerated conditions.

[3] = Storage of crystalline azithromycin monohydrate under ambient conditions (25° C. and 60% relative humidity); type: physicochemical
From the text: as §1, §2, §3, §4, §5, §6, §7

[4] = 3 months at 40° C. and 75% relative humidity
[5] = 40° C., 75% relative humidity, 0 months
[6] = 40° C., 75% relative humidity, 1 month
[7] = 40° C., 75% relative humidity, 2 months
[8] = 40° C., 75% relative humidity, 3 months
[9] = 3 months at 25° C. and 60% relative humidity
[10] = 25° C., 60% relative humidity, 0 months
[11] = 25° C., 60% relative humidity, 3 months

CC[C@H]1OC(=O)[C@H](C)[C@@H](O[C@H]2C[C@@](C)(OC)[C@@H](O)[C@H](C)O2)[C@H](C)[C@@H](O[C@@H]2O[C@H](C)C[C@H](N(C)C)[C@H]2O)[C@](C)(O)C[C@@H](C)CN(C)[C@H](C)[C@@H](O)[C@]1(C)O [azithromycin dihydrate]
hygroscopicity (in words) [1]: non-hygroscopic
stability (in words) [1]: stable

CC[C@H]1OC(=O)[C@H](C)[C@@H](O[C@H]2C[C@@](C)(OC)[C@@H](O)[C@H](C)O2)[C@H](C)[C@@H](O[C@@H]2O[C@H](C)C[C@H](N(C)C)[C@H]2O)[C@](C)(O)C[C@@H](C)CN(C)[C@H](C)[C@@H](O)[C@]1(C)O.O [azithromycin monohydrate form]
hygroscopicity (in words) [1]: non-hygroscopic
stability (in words) [1]: stable

CC[C@H]1OC(=O)[C@H](C)[C@@H](O[C@H]2C[C@@](C)(OC)[C@@H](O)[C@H](C)O2)[C@H](C)[C@@H](O[C@@H]2O[C@H](C)C[C@H](N(C)C)[C@H]2O)[C@](C)(O)C[C@@H](C)CN(C)[C@H](C)[C@@H](O)[C@]1(C)O [azithromycin monohydrate]
hygroscopicity (in words) [1]: hygroscopic
stability (in words) [1]: unstable

CC[C@H]1OC(=O)[C@H](C)[C@@H](OC2CC(C)(OC)C(O)C(C)O2)[C@H](C)[C@@H](OC2OC(C)CC(N(C)C)C2O)[C@](C)(O)C[C@@H](C)CN(C)[C@H](C)C(O)[C@]1(C)O (stereo partly drawn) [azithromycin, 9-deoxo-9a-aza-9a-methyl-9a-homoerythromycin A]
stability under acidic conditions ([1]; acidic conditions, U.S. Pat. No. 6,586,576 B2): unstable

CC[C@H]1OC(=O)[C@H](C)[C@@H](O[C@H]2C[C@@](C)(OC)[C@@H](O)[C@H](C)O2)[C@H](C)[C@@H](O[C@@H]2O[C@H](C)C[C@H](N(C)C)[C@H]2O)[C@](C)(O)C[C@@H](C)CN(C)[C@H](C)[C@@H](O)[C@]1(C)O.O [crystalline azithromycin monohydrate]
degradation after storage ([2]; 3 months (at least about 3 months), 40° C. and 75% relative humidity): less than 2 % (w/w)
hygroscopicity (in words) [2, 4]: non-hygroscopic
stability (in words) [2, 4]: stable
water content after storage (in words) ([2]; 3 months under accelerated conditions): remained substantially unchanged
Appearance [2, 5]: White
Azaerythromycin [2, 5]: 0.3%
Other Impurities, RRT = 0.23 [2, 5]: % = 0.10
Other Impurities, RRT = 0.26 [2, 5]: % = 0.20
Other Impurities, RRT = 0.34 [2, 5]: % = 0.10
Other Impurities, RRT = 0.42 [2, 5]: % = 0.30
Other Impurities, RRT = 0.45 [2, 5]: % = 0.07
Other Impurities, RRT = 0.48 [2, 5]: % = 0.20
Other Impurities, RRT = 1.45 [2, 5]: % = 0.05
Other Impurities, RRT = 1.50 [2, 5]: % = 0.20
Other Impurities, RRT = 1.56 [2, 5]: % = 0.10
Purity [2, 5]: 100.10%
Total Impurities [2, 5]: 1.60%
Water content [2, 5]: 5.9%
pH [2, 5]: 10.4
Appearance [2, 6]: White
Azaerythromycin [2, 6]: 0.4%
Other Impurities, RRT 0.23 [2, 6]: 0.23, 0.10%
Other Impurities, RRT 0.26 [2, 6]: 0.26, 0.20%
Other Impurities, RRT 0.35 [2, 6]: 0.35, 0.10%
Other Impurities, RRT 0.38 [2, 6]: 0.38, 0.05%
Other Impurities, RRT 0.43 [2, 6]: 0.43, 0.30%
Other Impurities, RRT 0.46 [2, 6]: 0.46, 0.08%
Other Impurities, RRT 0.48 [2, 6]: 0.48, 0.20%
Other Impurities, RRT 1.50 [2, 6]: 1.50, 0.20%
Other Impurities, RRT 1.56 [2, 6]: 1.56, 0.20%
Purity [2, 6]: 101.00%
Total Impurities [2, 6]: 1.80%
Water content [2, 6]: 5.9%
pH [2, 6]: 10.0
Appearance [2, 7]: White
Azaerythromycin [2, 7]: 0.3%
Other Impurities, RRT 0.23 [2, 7]: 0.23, 0.10%
Other Impurities, RRT 0.25 [2, 7]: 0.25, 0.20%
Other Impurities, RRT 0.34 [2, 7]: 0.34, 0.10%
Other Impurities, RRT 0.42 [2, 7]: 0.42, 0.40%
Other Impurities, RRT 0.45 [2, 7]: 0.45, 0.05%
Other Impurities, RRT 0.48 [2, 7]: 0.48, 0.20%
Other Impurities, RRT 1.50 [2, 7]: 1.50, 0.20%
Other Impurities, RRT 1.56 [2, 7]: 1.56, 0.10%
Purity [2, 7]: 99.50%
Total Impurities [2, 7]: 1.70%
Water content [2, 7]: 5.8%
pH [2, 7]: 10.3
Appearance [2, 8]: White
Azaerythromycin [2, 8]: 0.3%
Other Impurities, RRT 0.14 [2, 8]: 0.14, 0.20%
Other Impurities, RRT 0.24 [2, 8]: 0.24, 0.10%
Other Impurities, RRT 0.35 [2, 8]: 0.35, 0.20%
Other Impurities, RRT 0.43 [2, 8]: 0.43, 0.40%
Other Impurities, RRT 0.46 [2, 8]: 0.46, 0.07%
Other Impurities, RRT 0.49 [2, 8]: 0.49, 0.20%
Other Impurities, RRT 0.81 [2, 8]: 0.81, 0.06%
Other Impurities, RRT 0.85 [2, 8]: 0.85, 0.05%
Other Impurities, RRT 1.50 [2, 8]: 1.50, 0.20%
Other Impurities, RRT 1.55 [2, 8]: 1.55, 0.08%
Purity [2, 8]: 98.10%
Total Impurities [2, 8]: 1.90%
Water content [2, 8]: 5.7%
pH [2, 8]: 10.3
degradation after storage ([2]; at least 3 months at 40° C. and 75% relative humidity): less than 2%
change in the water content after storage ([2]; at least about 3 months at 40° C. and 75% relative humidity): less than 5%
hygroscopicity (in words) [3, 9]: non-hygroscopic
stability (in words) [3, 9]: stable
water content after storage (in words) ([3]; 3 months under ambient conditions): remained substantially unchanged
degradation products present after storage ([3]; 3 months, ambient (room temperature)): less than 2 % (w/w)
Appearance [3, 10]: White crystalline
Azaerythromycin [3, 10]: 0.3%
Other Impurities, RRT = 0.23 [3, 10]: RRT = 0.23, % = 0.10
Other Impurities, RRT = 0.26 [3, 10]: RRT = 0.26, % = 0.20
Other Impurities, RRT = 0.34 [3, 10]: RRT = 0.34, % = 0.10
Other Impurities, RRT = 0.42 [3, 10]: RRT = 0.42, % = 0.30
Other Impurities, RRT = 0.45 [3, 10]: RRT = 0.45, % = 0.07
Other Impurities, RRT = 0.48 [3, 10]: RRT = 0.48, % = 0.20
Other Impurities, RRT = 1.45 [3, 10]: RRT = 1.45, % = 0.05
Other Impurities, RRT = 1.50 [3, 10]: RRT = 1.50, % = 0.20
Other Impurities, RRT = 1.56 [3, 10]: RRT = 1.56, % = 0.10
Purity [3, 10]: 100.10%
Total Impurities [3, 10]: 1.60%
Water content [3, 10]: 5.9%
pH [3, 10]: 10.4
Appearance [3, 11]: White crystalline
Azaerythromycin [3, 11]: 0.3%
Other Impurities, RRT = 0.10 [3, 11]: RRT = 0.10, % = 0.20
Other Impurities, RRT = 0.24 [3, 11]: RRT = 0.24, % = 0.10
Other Impurities, RRT = 0.35 [3, 11]: RRT = 0.35, % = 0.10
Other Impurities, RRT = 0.43 [3, 11]: RRT = 0.43, % = 0.30
Other Impurities, RRT = 0.46 [3, 11]: RRT = 0.46, % = 0.07
Other Impurities, RRT = 0.49 [3, 11]: RRT = 0.49, % = 0.20
Other Impurities, RRT = 0.81 [3, 11]: RRT = 0.81, % = 0.10
Other Impurities, RRT = 0.84 [3, 11]: RRT = 0.84, % = 0.08
Other Impurities, RRT = 1.50 [3, 11]: RRT = 1.50, % = 0.20
Other Impurities, RRT = 1.55 [3, 11]: RRT = 1.55, % = 0.10
Purity [3, 11]: 98.70%
Total Impurities [3, 11]: 1.80%
Water content [3, 11]: 5.8%
pH [3, 11]: 10.2
